Measured values from patent EP0917878A1, “REMEDIES FOR HEPATITIS” (TORAY INDUSTRIES, INC., priority 1997, dated 1998).

Molecular target: T1, α4·IgG heavy chain-β1·IgG heavy chain chimeric protein heterodimer complex (chimeric protein of VLA-4 and IgG heavy chain) (Homo sapiens, UniProt P05556+P13612)
T1 construct: a chimeric molecule being composed with the extracellular region of integrin α4 and an immunoglobulin heavy chain; a chimeric molecule being composed with the extracellular region of integrin β1 and an immunoglobulin heavy chain; made in house; unpurified culture supernatant used in the assay
T1 sequence (P13612 35-977 limits assumed, change not shown): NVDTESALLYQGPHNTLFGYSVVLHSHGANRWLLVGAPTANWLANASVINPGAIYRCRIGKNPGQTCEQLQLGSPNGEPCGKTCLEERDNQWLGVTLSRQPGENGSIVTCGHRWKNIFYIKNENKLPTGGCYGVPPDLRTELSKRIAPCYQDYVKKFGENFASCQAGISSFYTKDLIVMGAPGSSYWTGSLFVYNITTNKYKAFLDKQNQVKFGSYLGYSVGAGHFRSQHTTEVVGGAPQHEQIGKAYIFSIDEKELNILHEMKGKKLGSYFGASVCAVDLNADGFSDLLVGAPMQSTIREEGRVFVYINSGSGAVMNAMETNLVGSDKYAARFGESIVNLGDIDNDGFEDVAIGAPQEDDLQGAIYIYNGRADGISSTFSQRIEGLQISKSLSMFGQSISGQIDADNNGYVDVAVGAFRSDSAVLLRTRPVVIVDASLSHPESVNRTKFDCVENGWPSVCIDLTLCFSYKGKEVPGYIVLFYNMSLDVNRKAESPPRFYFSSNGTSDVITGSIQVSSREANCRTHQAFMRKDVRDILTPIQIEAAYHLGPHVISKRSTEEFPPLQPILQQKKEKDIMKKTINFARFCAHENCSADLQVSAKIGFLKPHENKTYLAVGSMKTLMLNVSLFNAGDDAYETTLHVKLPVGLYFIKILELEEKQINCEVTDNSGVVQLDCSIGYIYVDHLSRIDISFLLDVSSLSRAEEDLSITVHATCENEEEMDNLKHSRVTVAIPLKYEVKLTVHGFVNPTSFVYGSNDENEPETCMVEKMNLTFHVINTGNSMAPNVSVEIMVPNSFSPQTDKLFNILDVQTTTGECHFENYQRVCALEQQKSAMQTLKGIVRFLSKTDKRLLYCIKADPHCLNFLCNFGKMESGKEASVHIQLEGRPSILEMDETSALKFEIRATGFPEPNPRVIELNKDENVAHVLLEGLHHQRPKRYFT
T1 sequence (P05556 21-728 limits assumed, change not shown): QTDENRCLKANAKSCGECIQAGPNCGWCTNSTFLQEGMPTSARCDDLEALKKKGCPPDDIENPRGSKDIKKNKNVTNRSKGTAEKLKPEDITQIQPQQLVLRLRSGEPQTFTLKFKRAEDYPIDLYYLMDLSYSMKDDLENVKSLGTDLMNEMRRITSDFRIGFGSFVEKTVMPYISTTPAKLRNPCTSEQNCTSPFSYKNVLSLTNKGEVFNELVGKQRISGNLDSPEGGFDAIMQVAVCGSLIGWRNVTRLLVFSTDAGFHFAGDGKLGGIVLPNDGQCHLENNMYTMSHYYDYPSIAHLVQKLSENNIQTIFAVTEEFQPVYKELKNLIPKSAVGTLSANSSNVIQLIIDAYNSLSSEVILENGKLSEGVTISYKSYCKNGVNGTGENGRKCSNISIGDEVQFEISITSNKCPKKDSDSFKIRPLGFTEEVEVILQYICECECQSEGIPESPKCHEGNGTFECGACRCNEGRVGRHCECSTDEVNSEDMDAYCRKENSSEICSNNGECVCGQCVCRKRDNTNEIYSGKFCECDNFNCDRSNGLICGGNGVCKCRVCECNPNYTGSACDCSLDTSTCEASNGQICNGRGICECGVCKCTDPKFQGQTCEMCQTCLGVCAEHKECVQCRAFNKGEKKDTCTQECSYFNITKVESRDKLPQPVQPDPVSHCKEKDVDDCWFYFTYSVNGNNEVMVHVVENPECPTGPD
T1 sequence (P01857 99-330 partner limits assumed): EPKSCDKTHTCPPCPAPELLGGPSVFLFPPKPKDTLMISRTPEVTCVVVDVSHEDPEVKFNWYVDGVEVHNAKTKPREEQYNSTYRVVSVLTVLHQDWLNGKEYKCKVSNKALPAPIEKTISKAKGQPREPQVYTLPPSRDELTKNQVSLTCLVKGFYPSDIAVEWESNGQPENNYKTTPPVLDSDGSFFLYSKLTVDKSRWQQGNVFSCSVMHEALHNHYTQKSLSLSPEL
Test: binding of α4·IgG heavy chain-β1·IgG heavy chain chimeric protein heterodimer complex to solid phase CS-1-IgG (absorbance at 490 nm)
Settings: for inhibition at 50 µg/mL: Concentration 50 µg/ml, read-out: Inhibition rate (%)
Procedure: At first, according to the said report (Humphries, M. J. et al., J. Biol. Chem., 262, 6886-6892 (1987)), the peptide fragment of sequence No. 13 (CS-1 peptide) was bound to rabbit IgG (Sigma), to prepare CS-1-IgG. The CS-1-IgG was diluted by PBS(-), and supplied in a 96-well immunoplate (NUNC) by 100 µl/well, and allowed to stand at 4°C for 16 hours, to be formed as a solid phase on the plate.
After completion of standing, the surface of the plate was washed with PBS(-) twice and treated with 1% BSA(heat-denatured at 80°C for 10 minutes)-PBS solution (300 µl/well) at 4°C for 3 hours to block the nonspecific reaction. Then, the solid phase CS-1-IgG and the CHO culture supernatant (100 µl) containing α4·IgG heavy chain-β1·IgG heavy chain chimeric protein heterodimer complex were reacted with each other at 30°C for 3 hours. The non-bound α4·IgG heavy chain-β1·IgG heavy chain chimeric protein heterodimer complex was removed by washing with 0.1% BSA-containing TBS buffer (150 mM NaCl, 25 mM Tris-HCl, 1 mM MnCl2, pH 7.4) twice, and the bound α4·IgG heavy chain-β1·IgG heavy chain chimeric protein heterodimer complex was detected by biotin labeled anti-human IgG antibody (Vector) as the primary antibody and avidin labeled horseradish peroxidase (Sigma) used as the secondary anti body. The surface of the plate was washed with the TBS buffer. Orthophenylenediamine was added as a substrate to it for color development, and the absorbance at 490 nm were measured.
The all peptides were synthesized by a peptide synthesizer. The peptide and 100 µl of CHO cultured supernatant solution containing α4·IgG heavy chain-β1·IgG heavy chain chimeric protein heterodimer complex were mixed at room temperature for 20 minutes, and the binding to CS-1-IgG was determined according to the method in Example 4.
Reagents and the compounds stated in literature were picked up at random, adjusted to a final concentration of 50 µg/ml, and added to the binding assay system of Example 4. Compounds showing inhibitory activity were obtained. […]

inhibition at 50 µg/mL | inhibition of binding to CS-1 peptide (5 mM, Fig. 1) | SMILES
39.5% | – | C[C@H](CCC(=O)O)[C@H]1CC[C@H]2[C@@H]3C(=O)C[C@@H]4CC(=O)CC[C@]4(C)[C@H]3CC(=O)[C@]12C [Dehydrocholic acid]
– | almost perfectly inhibited | O=C(O)CN(CCN(CC(=O)O)CC(=O)O)CC(=O)O [EDTA]
87.5% | – | O=c1ccc2ccc(O)cc2o1 [7-Hydroxycoumarin]
